Format in all cases: cell-based
For assay [1], the system named is Arabidopsis thaliana Col-0 roots. Briefly: [ROS]intra burst in roots, DCFH-DA fluorescent probe. The following applies: mix of homologues, 10 µM, fold change at 20 min vs mock (DMSO 0.1%); n = 9 from three independent experiments; Figure 2B,C. On the procedure: For cytoplasmic hydrogen peroxide (reflecting cytosolic/intracellular ROS and referred to hereafter as [ROS]intra) measurement in roots, 15 mm long Arabidopsis thaliana root segments, isolated from different two-week-old plants, were placed in a well (one root/well) of a microplate (96 Flat Black-Greiner Bio-One^TM CellStar^TM, Thermo Fisher Scientific, Hampton, VA, USA) filled with sterile water. After overnight incubation, roots were treated with 50 µM DCFH-DA (dichloro-dihydro-fluorescein diacetate; ACROS Organics, Geel, Belgium) for 10 min in the dark and rinsed with PBS, and next, wells were filled with CLP/mock solution. Fluorescence measurements (excitation wavelength 492 nm, emission wavelength 530 nm) were conducted by a Spark® (Tecan, Männedorf, Switzerland) microplate reader, using nine readings per well. Data, expressed as relative fluorescence increase, were obtained by subtracting the fluorescence measured at the first time point from the fluorescence measured at each time point (with the first time point being taken as 0). The fluorescence fold increase was defined for each repeat as the ratio between the fluorescence increase obtained at one time point for treatments and the mean fluorescence increase obtained at the same time point in mock-treated tissues.

Assay [2] deals with Arabidopsis thaliana root protoplasts. Briefly: NO burst in root protoplasts, DAF-DA probe. The following applies: 10 µM, fold change at 20 min vs mock; n = 12; Figure 3C; in roots Srf and Liche increased NO, Pumi had no impact. Here is the method: Two-week-old Arabidopsis thaliana seedling roots (from 27 mg seeds) were collected and were cut into 1–2 mm segments and incubated in a protoplasting solution (20 mM MES pH 5.7, 0.4 M mannitol, 20 mM KCl, 10 mM CaCl2, 0.1% (w/v) BSA, 1.5% (w/v) cellulase R10 (Duchefa Biochemie, Haarlem, The Netherlands), 0.4% (w/v) macerozyme R10 (Duchefa Chimie)) for 3 h at room temperature and in the dark. After incubation, 1 mL of solution A (154 mM NaCl, 5 mM KCl, 125 mM CaCl2, 4 mM MES, pH = 5.7) was added inside. The suspension was agitated gently and filtered by a 70 µm pore filter to remove extra root debris. Filtered suspension was centrifuged at 850 g for 6 min at room temperature, and the pelleted protoplasts were rinsed three times with solution B (4 mM MES pH 5.7, 154 mM NaCl, 125 mM CaCl2, 5 mM KCl) before being resuspended in solution C (2 mM MES pH 5.7, 0.5 M mannitol, 20 mM KCl, 2 mM CaCl2) at a working concentration of 1–2 × 10^5 cells per mL. For the detection of intracellular NO, roots were processed as described above and 200 µL sterile water was replaced by 200 µL 5 μM DAF-DA in a buffered solution (10 mM Tris/HCl, pH = 7.4). Roots were incubated at room temperature for 1 h in the absence of light and then washed 3 times with Tris/HCl (10 mM, pH = 7.4). The fluorescence emitted by DAF-DA was detected by excitation at 495 nm and emission at 515 nm. Experiments where NO was measured after pretreatment with the calcium channel blocker or calcium chelator included an additional step where LaCl3 (10 mM; Merck Chemicals SA, Hoeilaart, Belgium) or EGTA (1 mM; Merck Chemicals SA, Hoeilaart, Belgium) was added three minutes before treatments. Data were processed as described above for ROS. For NO measurements in protoplasts, the suspension was incubated in the same conditions before being distributed (50 µL) in microplate wells and treated with the CLPs at a 10 µM final concentration or with 0.1% DMSO as a mock.

Assay [3] has as its system Arabidopsis thaliana roots. Briefly: Intracellular NO (RNS burst) in roots, DAF-DA probe. The following applies: for NO accumulation in roots vs mock: 10 µM, DAF-DA fluorescence fold change at 20 min vs mock (DMSO 0.1%), n = 12 from three independent experiments, Figure 3A,B. Here is the method:
For the detection of intracellular NO, roots were processed as described above and 200 µL sterile water was replaced by 200 µL 5 μM DAF-DA in a buffered solution (10 mM Tris/HCl, pH = 7.4). Roots were incubated at room temperature for 1 h in the absence of light and then washed 3 times with Tris/HCl (10 mM, pH = 7.4). The fluorescence emitted by DAF-DA was detected by excitation at 495 nm and emission at 515 nm. Experiments where NO was measured after pretreatment with the calcium channel blocker or calcium chelator included an additional step where LaCl3 (10 mM; Merck Chemicals SA, Hoeilaart, Belgium) or EGTA (1 mM; Merck Chemicals SA, Hoeilaart, Belgium) was added three minutes before treatments. Data were processed as described above for ROS. For NO measurements in protoplasts, the suspension was incubated in the same conditions before being distributed (50 µL) in microplate wells and treated with the CLPs at a 10 µM final concentration or with 0.1% DMSO as a mock.

Consider lichenysin, for which the “[ROS]intra production in roots vs mock” value in assay [1] is “induced a significantly higher production of [ROS]intra”. Also, in assay [2], the “NO burst in root protoplasts, trend compared to roots” value (shortened to “NO burst … compared to roots”) was “very similar trend”.
Turning to pumilacidin, the “[ROS]intra production in roots vs mock” value in assay [1] was “did not retain any significant triggering activity”. Further, in assay [3], the “NO accumulation in roots vs mock” value is “no impact”. Besides, in assay [2], the “NO burst … compared to roots” value is listed as “very similar trend”.
For the substance surfactin [Srf], in assay [1], the “[ROS]intra production in roots vs mock” value was “induced a significantly higher production of [ROS]intra”. Further, in assay [3], the “NO accumulation in roots vs mock” value is listed as “fast accumulation of NO”. The “Srf-induced RNS (NO burst) in roots after pretreatment with Ca2+ chelator EGTA” value in assay [3] (EGTA 1 mM added three minutes before treatment, over 50 min, n = 8 from two independent experiments, Figure 4D) is recorded as “abolished”. Further, the “Srf-induced RNS (NO burst) in roots after pretreatment with Ca2+ channel blocker LaCl3” value in assay [3] (LaCl3 10 mM added three minutes before treatment, over 50 min, n = 8 from two independent experiments, Figure 4C) was “abolished”. In assay [2], the “NO burst … compared to roots” value was “very similar trend”.

Values taken from paper PMC12562324, “Surfactin Structural Variants Differentially Modulate Plant Immune Responses” (Biomolecules, 2025).
